The values below come from ChEMBL document CHEMBL1128079, “Differential RXR & RAR activity of stilbene retinoid analogs bearing thiazole and imidazole carboxylic acids” (Bioorg Med Chem Lett, 1995).

What all share (assay type): functional
Assay [1] has as its target T1, Retinoic acid receptor beta (Homo sapiens, UniProt P10826).
T1 sequence (P10826 whole entry): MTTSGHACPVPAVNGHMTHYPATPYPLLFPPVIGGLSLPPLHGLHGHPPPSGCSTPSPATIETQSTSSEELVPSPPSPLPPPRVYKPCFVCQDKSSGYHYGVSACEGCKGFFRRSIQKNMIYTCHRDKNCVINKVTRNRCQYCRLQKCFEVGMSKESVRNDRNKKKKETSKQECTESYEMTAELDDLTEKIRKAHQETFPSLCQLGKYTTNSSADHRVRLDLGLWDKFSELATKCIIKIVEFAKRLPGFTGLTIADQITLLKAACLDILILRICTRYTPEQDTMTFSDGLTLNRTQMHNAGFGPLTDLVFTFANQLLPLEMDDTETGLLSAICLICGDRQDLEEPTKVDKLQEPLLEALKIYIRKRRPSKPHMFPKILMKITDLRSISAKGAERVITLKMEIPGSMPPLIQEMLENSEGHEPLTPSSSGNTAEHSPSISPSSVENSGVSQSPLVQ
The assay is described as follows: Agonist activity for retinoic acid receptor RAR beta in transcriptional activation assay.

Assay [2] has as its target T2, Retinoic acid receptor RXR-gamma (Homo sapiens, UniProt P48443).
T2 sequence (P48443 whole entry): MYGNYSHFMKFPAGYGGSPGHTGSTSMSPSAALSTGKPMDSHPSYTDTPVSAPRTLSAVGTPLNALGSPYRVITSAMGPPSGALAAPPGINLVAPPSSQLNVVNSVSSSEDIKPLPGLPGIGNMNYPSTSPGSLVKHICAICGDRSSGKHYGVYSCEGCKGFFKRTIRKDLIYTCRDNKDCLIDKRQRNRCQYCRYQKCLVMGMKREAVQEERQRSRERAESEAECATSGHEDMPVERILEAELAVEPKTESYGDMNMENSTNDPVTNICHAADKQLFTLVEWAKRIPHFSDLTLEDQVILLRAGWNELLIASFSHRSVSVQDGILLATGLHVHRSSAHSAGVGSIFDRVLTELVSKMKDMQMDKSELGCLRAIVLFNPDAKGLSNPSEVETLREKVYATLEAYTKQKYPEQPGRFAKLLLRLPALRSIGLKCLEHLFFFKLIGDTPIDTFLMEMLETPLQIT
The assay is described as follows: Agonist activity for retinoic acid receptor RXR gamma in transcriptional activation assay.

Assay [3] addresses T3, Retinoic acid receptor RXR-alpha (Homo sapiens, UniProt P19793).
T3 sequence (P19793 whole entry): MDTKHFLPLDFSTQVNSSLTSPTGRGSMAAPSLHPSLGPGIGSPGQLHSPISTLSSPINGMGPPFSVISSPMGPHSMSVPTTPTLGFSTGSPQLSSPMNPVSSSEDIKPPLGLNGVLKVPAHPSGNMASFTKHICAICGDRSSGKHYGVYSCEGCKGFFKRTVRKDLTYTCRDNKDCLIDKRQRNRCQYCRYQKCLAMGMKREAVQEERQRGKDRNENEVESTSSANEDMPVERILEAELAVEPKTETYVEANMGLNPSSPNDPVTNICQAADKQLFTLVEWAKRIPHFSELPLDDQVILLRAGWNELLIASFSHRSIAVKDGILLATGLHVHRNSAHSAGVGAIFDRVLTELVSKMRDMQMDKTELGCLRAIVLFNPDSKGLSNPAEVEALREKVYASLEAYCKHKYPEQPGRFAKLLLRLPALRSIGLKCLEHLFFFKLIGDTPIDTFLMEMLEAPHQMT
The assay is described as follows: Agonist activity for retinoic acid receptor RXR alpha in transcriptional activation assay.

Assay [4] has as its target T4, Retinoic acid receptor gamma (Homo sapiens, UniProt P13631).
T4 sequence (P13631 whole entry): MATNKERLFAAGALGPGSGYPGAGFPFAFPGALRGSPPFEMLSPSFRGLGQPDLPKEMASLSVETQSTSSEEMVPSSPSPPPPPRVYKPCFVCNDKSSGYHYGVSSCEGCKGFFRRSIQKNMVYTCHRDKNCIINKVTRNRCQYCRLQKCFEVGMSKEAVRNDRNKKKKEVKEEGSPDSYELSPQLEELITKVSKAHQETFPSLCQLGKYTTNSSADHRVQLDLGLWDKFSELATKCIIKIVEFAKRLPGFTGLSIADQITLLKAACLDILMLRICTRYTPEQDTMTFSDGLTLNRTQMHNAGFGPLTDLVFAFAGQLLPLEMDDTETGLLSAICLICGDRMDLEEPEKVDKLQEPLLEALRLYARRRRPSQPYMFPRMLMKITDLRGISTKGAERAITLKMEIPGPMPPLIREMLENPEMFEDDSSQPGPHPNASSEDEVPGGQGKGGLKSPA
The assay is described as follows: Agonist activity for retinoic acid receptor RAR gamma in transcriptional activation assay.

Assay [5] deals with T5, Retinoic acid receptor alpha (Homo sapiens, UniProt P10276).
T5 sequence (P10276 whole entry): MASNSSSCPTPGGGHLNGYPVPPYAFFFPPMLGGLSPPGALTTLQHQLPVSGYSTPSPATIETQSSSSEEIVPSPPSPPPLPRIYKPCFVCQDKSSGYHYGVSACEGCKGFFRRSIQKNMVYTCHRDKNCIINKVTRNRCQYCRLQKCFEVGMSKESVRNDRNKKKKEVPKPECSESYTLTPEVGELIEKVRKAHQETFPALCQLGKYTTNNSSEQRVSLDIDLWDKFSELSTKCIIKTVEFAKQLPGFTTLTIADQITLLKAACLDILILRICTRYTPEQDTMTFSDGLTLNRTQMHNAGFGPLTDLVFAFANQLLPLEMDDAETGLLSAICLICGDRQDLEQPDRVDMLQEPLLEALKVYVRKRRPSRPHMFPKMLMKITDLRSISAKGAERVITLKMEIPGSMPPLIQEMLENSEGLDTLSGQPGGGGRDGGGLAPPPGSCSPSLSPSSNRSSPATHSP
The assay is described as follows: Agonist activity for retinoic acid receptor RAR alpha in transcriptional activation assay; […].

Assay [6] addresses T6, Retinoic acid receptor RXR-beta (Homo sapiens, UniProt P28702).
T6 sequence (P28702 whole entry): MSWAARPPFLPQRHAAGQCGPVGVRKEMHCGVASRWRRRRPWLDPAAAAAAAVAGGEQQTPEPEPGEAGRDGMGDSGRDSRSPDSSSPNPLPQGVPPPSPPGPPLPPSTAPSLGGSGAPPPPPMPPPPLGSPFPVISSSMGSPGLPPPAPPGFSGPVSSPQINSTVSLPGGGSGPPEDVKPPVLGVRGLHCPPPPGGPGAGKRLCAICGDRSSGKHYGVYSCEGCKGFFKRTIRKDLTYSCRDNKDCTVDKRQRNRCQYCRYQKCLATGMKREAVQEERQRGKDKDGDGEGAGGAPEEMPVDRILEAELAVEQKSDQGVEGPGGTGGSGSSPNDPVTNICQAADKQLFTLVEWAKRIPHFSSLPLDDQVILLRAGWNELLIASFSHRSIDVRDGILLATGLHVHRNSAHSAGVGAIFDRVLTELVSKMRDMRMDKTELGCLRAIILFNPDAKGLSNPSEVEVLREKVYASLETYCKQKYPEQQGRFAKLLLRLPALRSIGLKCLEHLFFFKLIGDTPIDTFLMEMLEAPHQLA
The assay is described as follows: Agonist activity for retinoic acid receptor RXR beta in transcriptional activation assay.

Assay [7] addresses T1, Retinoic acid receptor beta. The assay is described as follows: Agonist activity for retinoic acid receptor RAR beta in transcriptional activation assay; […].
Assay [8] addresses T4, Retinoic acid receptor gamma. The assay is described as follows: Agonist activity for retinoic acid receptor RAR gamma in transcriptional activation assay; […].
Assay [9] addresses T5, Retinoic acid receptor alpha. The assay is described as follows: Agonist activity for retinoic acid receptor RAR alpha in transcriptional activation assay.

Usually EC50 stands for the concentration needed to bring the measured effect to its halfway point. Regarding `C/C(=C\c1cc(C(=O)O)cs1)c1cc2c(cc1C)C(C)(C)CCC2(C)C`, the 50% effective concentration (EC50) in assay [1] is 1990 nM; in [2] (read-out: EC50), 105 nM; in assay [3] it was 215 nM; in [4] it was 979 nM; in assay [5], “Not Active”; in assay [6], 180 nM.

Take `C/C(=C\c1nc(C(=O)O)c[nH]1)c1cc2c(cc1C)C(C)(C)CCC2(C)C`: the half-maximal effective concentration (EC50) in [2] (read-out: EC50) is 170 nM; in assay [3], 89 nM; in [5] it was “Not Active”; in [7], “Not Active”; in [8] it was “Not Active”; in assay [6], 130 nM.

Take `C/C(=C\c1ccc(C(=O)O)cc1)c1ccc2c(c1)C(C)(C)CCC2(C)C`: the EC50 entry in [2] is given as “Not Active”.

`C/C(=C\c1ncc(C(=O)O)s1)c1cc2c(cc1C)C(C)(C)CCC2(C)C`: the concentration for a half-maximal effect (EC50) in assay [1] is 220 nM; in assay [2] (read-out: EC50) it was 4 nM; in [3], 4 nM; in assay [4] it was 200 nM; in assay [5], “Not Active”; in assay [6] it was 3 nM.

With `C/C(=C\c1ccc(C(=O)O)s1)c1cc2c(cc1C)C(C)(C)CCC2(C)C`, the 50% effective concentration (EC50) in assay [1] was 56 nM; in assay [2] (read-out: EC50) it was 33 nM; in assay [3], 35 nM; in [4], 131 nM; in [5], “Not Active”; in assay [6], 23 nM.

As for `C/C(=C\c1ncc(C(=O)O)n1S(=O)(=O)N(C)C)c1cc2c(cc1C)C(C)(C)CCC2(C)C`, the EC50 was 86 nM in assay [2] (read-out: EC50); 59 nM in [3]; “Not Active” in assay [5]; “Not Active” in [7]; “Not Active” in [8]; 180 nM in [6].

With `C/C(=C\c1ccc(C(=O)O)s1)c1ccc2c(c1)C(C)(C)CCC2(C)C`, the concentration for a half-maximal effect (EC50) is 29 nM in assay [1]; 2300 nM in [2] (read-out: EC50); 2400 nM in [3]; 15 nM in [4]; 690 nM in assay [9]; 2300 nM in assay [6].

Turning to `C/C(=C\c1ncc(C(=O)O)s1)c1ccc2c(c1)C(C)(C)CCC2(C)C`, the concentration giving a half-maximal response (EC50) amounted to 46 nM in assay [1]; 160 nM in assay [2] (read-out: EC50); 210 nM in [3]; 34 nM in [4]; 210 nM in [9]; 210 nM in assay [6].
